± gives the expanded uncertainty stated by the source.
Assay: activity coefficient (dimensionless); of the first substance listed, at infinite dilution; xn = mol fraction of the nth substance listed
Details: Liquid, Chromatography, x1 = 0

Compound: CCCCCCCCCCCC [dodecane] + CCCCCCCC[N+](C)(C)C.O=S(=O)([N-]S(=O)(=O)C(F)(F)F)C(F)(F)F
- activity coefficient (322.85 K): 33.1 ± 1.5
- activity coefficient (332.65 K): 30.5 ± 1.4
- activity coefficient (343.15 K): 27.1 ± 1.3

Compound: CCCCCCCCCCCC [dodecane] + CCCCCCCC[N+](CCCCCCCC)(CCCCCCCC)CCCCCCCC.O=S(=O)([N-]S(=O)(=O)C(F)(F)F)C(F)(F)F
- activity coefficient (343.15 K): 2.72 ± 0.12

Compound: CCCCCCCCCCCC [dodecane] + CCCC[N+](C)(CCCC)CCCC.O=S(=O)([N-]S(=O)(=O)C(F)(F)F)C(F)(F)F
- activity coefficient (322.85 K): 32.4 ± 1.5
- activity coefficient (332.65 K): 31.3 ± 1.4
- activity coefficient (343.15 K): 28.8 ± 1.3

Compound: CCO [ethanol] + CCCCCCCCCC[N+](C)(C)C.O=S(=O)([N-]S(=O)(=O)C(F)(F)F)C(F)(F)F
- activity coefficient (322.85 K): 1.29 ± 0.04
- activity coefficient (332.65 K): 1.19 ± 0.04
- activity coefficient (343.15 K): 1.07 ± 0.03

Compound: CCO [ethanol] + CCCCCCCC[N+](C)(C)C.O=S(=O)([N-]S(=O)(=O)C(F)(F)F)C(F)(F)F
- activity coefficient (322.85 K): 1.47 ± 0.06
- activity coefficient (332.65 K): 1.32 ± 0.05
- activity coefficient (343.15 K): 1.19 ± 0.04

Compound: CCO [ethanol] + CCCCCCCC[N+](CCCCCCCC)(CCCCCCCC)CCCCCCCC.O=S(=O)([N-]S(=O)(=O)C(F)(F)F)C(F)(F)F
- activity coefficient (322.85 K): 1.18 ± 0.04
- activity coefficient (332.65 K): 1.12 ± 0.03
- activity coefficient (343.15 K): 1.05 ± 0.03

Compound: CCO [ethanol] + CCCC[N+](C)(CCCC)CCCC.O=S(=O)([N-]S(=O)(=O)C(F)(F)F)C(F)(F)F
- activity coefficient (322.85 K): 1.53 ± 0.06
- activity coefficient (332.65 K): 1.4 ± 0.05
- activity coefficient (343.15 K): 1.27 ± 0.04

Compound: CCc1ccccc1 [ethylbenzene] + CCCCCCCCCC[N+](C)(C)C.O=S(=O)([N-]S(=O)(=O)C(F)(F)F)C(F)(F)F
- activity coefficient (322.85 K): 1.16 ± 0.04
- activity coefficient (332.65 K): 1.2 ± 0.04
- activity coefficient (343.15 K): 1.19 ± 0.04

Compound: CCc1ccccc1 [ethylbenzene] + CCCCCCCC[N+](C)(C)C.O=S(=O)([N-]S(=O)(=O)C(F)(F)F)C(F)(F)F
- activity coefficient (322.85 K): 1.39 ± 0.05
- activity coefficient (332.65 K): 1.4 ± 0.05
- activity coefficient (343.15 K): 1.38 ± 0.05

Compound: CCc1ccccc1 [ethylbenzene] + CCCCCCCC[N+](CCCCCCCC)(CCCCCCCC)CCCCCCCC.O=S(=O)([N-]S(=O)(=O)C(F)(F)F)C(F)(F)F
- activity coefficient (322.85 K): 0.59 ± 0.03
- activity coefficient (332.65 K): 0.6 ± 0.03
- activity coefficient (343.15 K): 0.61 ± 0.03

Compound: CCc1ccccc1 [ethylbenzene] + CCCC[N+](C)(CCCC)CCCC.O=S(=O)([N-]S(=O)(=O)C(F)(F)F)C(F)(F)F
- activity coefficient (322.85 K): 1.56 ± 0.06
- activity coefficient (332.65 K): 1.64 ± 0.07
- activity coefficient (343.15 K): 1.63 ± 0.07

Compound: CCCCCCC [heptane] + CCCCCCCCCC[N+](C)(C)C.O=S(=O)([N-]S(=O)(=O)C(F)(F)F)C(F)(F)F
- activity coefficient (322.85 K): 5.26 ± 0.24
- activity coefficient (332.65 K): 5.14 ± 0.23
- activity coefficient (343.15 K): 4.92 ± 0.22

Compound: CCCCCCC [heptane] + CCCCCCCC[N+](C)(C)C.O=S(=O)([N-]S(=O)(=O)C(F)(F)F)C(F)(F)F
- activity coefficient (322.85 K): 8.27 ± 0.38
- activity coefficient (332.65 K): 7.81 ± 0.36
- activity coefficient (343.15 K): 7.18 ± 0.33

Compound: CCCCCCC [heptane] + CCCCCCCC[N+](CCCCCCCC)(CCCCCCCC)CCCCCCCC.O=S(=O)([N-]S(=O)(=O)C(F)(F)F)C(F)(F)F
- activity coefficient (322.85 K): 1.5 ± 0.06
- activity coefficient (332.65 K): 1.48 ± 0.06
- activity coefficient (343.15 K): 1.47 ± 0.06

Compound: CCCCCCC [heptane] + CCCC[N+](C)(CCCC)CCCC.O=S(=O)([N-]S(=O)(=O)C(F)(F)F)C(F)(F)F
- activity coefficient (322.85 K): 8.88 ± 0.41
- activity coefficient (332.65 K): 8.82 ± 0.4
- activity coefficient (343.15 K): 8.34 ± 0.38

Compound: C=CCCCC [hex-1-ene] + CCCCCCCCCC[N+](C)(C)C.O=S(=O)([N-]S(=O)(=O)C(F)(F)F)C(F)(F)F
- activity coefficient (322.85 K): 2.7 ± 0.12
- activity coefficient (332.65 K): 2.86 ± 0.13
- activity coefficient (343.15 K): 2.76 ± 0.13

Compound: C=CCCCC [hex-1-ene] + CCCCCCCC[N+](C)(C)C.O=S(=O)([N-]S(=O)(=O)C(F)(F)F)C(F)(F)F
- activity coefficient (322.85 K): 3.99 ± 0.18
- activity coefficient (332.65 K): 3.8 ± 0.17
- activity coefficient (343.15 K): 3.6 ± 0.16

Compound: C=CCCCC [hex-1-ene] + CCCCCCCC[N+](CCCCCCCC)(CCCCCCCC)CCCCCCCC.O=S(=O)([N-]S(=O)(=O)C(F)(F)F)C(F)(F)F
- activity coefficient (322.85 K): 1.05 ± 0.03
- activity coefficient (332.65 K): 1.05 ± 0.03
- activity coefficient (343.15 K): 1.04 ± 0.03

Compound: C=CCCCC [hex-1-ene] + CCCC[N+](C)(CCCC)CCCC.O=S(=O)([N-]S(=O)(=O)C(F)(F)F)C(F)(F)F
- activity coefficient (322.85 K): 4.31 ± 0.2
- activity coefficient (332.65 K): 4.4 ± 0.2
- activity coefficient (343.15 K): 4.25 ± 0.19

Compound: CCCCCC [hexane] + CCCCCCCCCC[N+](C)(C)C.O=S(=O)([N-]S(=O)(=O)C(F)(F)F)C(F)(F)F
- activity coefficient (322.85 K): 4.2 ± 0.19
- activity coefficient (332.65 K): 4.1 ± 0.18
- activity coefficient (343.15 K): 3.93 ± 0.17

Compound: CCCCCC [hexane] + CCCCCCCC[N+](C)(C)C.O=S(=O)([N-]S(=O)(=O)C(F)(F)F)C(F)(F)F
- activity coefficient (322.85 K): 6.21 ± 0.28
- activity coefficient (332.65 K): 5.83 ± 0.27
- activity coefficient (343.15 K): 5.36 ± 0.24

Compound: CCCCCC [hexane] + CCCCCCCC[N+](CCCCCCCC)(CCCCCCCC)CCCCCCCC.O=S(=O)([N-]S(=O)(=O)C(F)(F)F)C(F)(F)F
- activity coefficient (322.85 K): 1.3 ± 0.04
- activity coefficient (332.65 K): 1.29 ± 0.04
- activity coefficient (343.15 K): 1.28 ± 0.04

Compound: CCCCCC [hexane] + CCCC[N+](C)(CCCC)CCCC.O=S(=O)([N-]S(=O)(=O)C(F)(F)F)C(F)(F)F
- activity coefficient (322.85 K): 6.75 ± 0.31
- activity coefficient (332.65 K): 6.75 ± 0.31
- activity coefficient (343.15 K): 6.44 ± 0.29
